According to US6358885B1, “Substituted phenylheterocyclic herbicides” (Mississippi State University, priority 1992, dated 2002):

What was measured:
cheatgrass = assay: Test B preemergence/postemergence greenhouse plant response rating 0 to 10; assay type: in vivo, Bromus secalinus; conditions: 0 to 10 scale
Outline: (§1)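 Test chemicals, dissolved in a non-phytotoxic solvent, were applied to soil at planting and, at the same time, over foliage of seedlings at the one to four leaf stage.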

cotton = assay: as above; assay type: in vivo, Gossypium hirsutum; conditions: 0 to 10 scale
Outline: as §1

lambsquarters [1] = assay: as above; assay type: in vivo, Chenopodium album; conditions: 0 to 10 scale
Outline: as §1

rice = assay: as above; assay type: in vivo, Oryza sativa; conditions: 0 to 10 scale
Outline: as §1

soybean [2] = assay: as above; assay type: in vivo, Glycine max; conditions: 0 to 10 scale
Outline: as §1

velvetleaf [3] = assay: as above; assay type: in vivo, Abutilon theophrasti; conditions: 0 to 10 scale
Outline: as §1

wild buckwheat = assay: as above; assay type: in vivo, Polygonum convolvulus; conditions: 0 to 10 scale
Outline: as §1

purple nutsedge = assay: as above; assay type: in vivo, Cyperus rotundus; conditions: 0 to 10 scale
Outline: as §1

barley = assay: Test C preemergence/postemergence greenhouse plant response rating 0 to 100; assay type: in vivo, Hordeum vulgare; conditions: POSTEMERGENCE
Outline: (§2)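 Compounds in non-phytotoxic solvent went onto sandy loam before emergence (seeded one day earlier) or onto plants at the one-to-four leaf stage. Duck salad was treated via flood water (~2.5 cm, maintained) over silt loam.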

corn = assay: as above; assay type: in vivo, Zea mays; conditions: POSTEMERGENCE
Outline: as §2

lambsquarters [4] = assay: as above; assay type: in vivo, Chenopodium album; conditions: POSTEMERGENCE
Outline: as §2

morningglory = assay: as above; assay type: in vivo, Ipomoea hederacea; conditions: POSTEMERGENCE
Outline: as §2

rape = assay: as above; assay type: in vivo, Brassica napus; conditions: POSTEMERGENCE
Outline: as §2

sorghum = assay: as above; assay type: in vivo, Sorghum bicolor; conditions: POSTEMERGENCE
Outline: as §2

soybean [5] = assay: as above; assay type: in vivo, Glycine max; conditions: POSTEMERGENCE
Outline: as §2

sugar beet = assay: as above; assay type: in vivo, Beta vulgaris; conditions: POSTEMERGENCE
Outline: as §2

velvetleaf [6] = assay: as above; assay type: in vivo, Abutilon theophrasti; conditions: POSTEMERGENCE
Outline: as §2

umbrella sedge = assay: Test C flood test plant response rating 0 to 100; assay type: in vivo, Cyperus difformis
Outline: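 Compounds in non-phytotoxic solvent applied preemergence to sandy loam one day after planting, postemergence at the 1–4 leaf stage, or to ~2.5 cm floodwater over silt loam.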

## COCN1C(=O)COc2cc(F)c(-c3nn4c(c3Br)CCCC4)cc21 [Compound 67]
cheatgrass; POSTEMERGENCE, Rate 10 g/ha
  Plant response rating, Cheatgrass: 5
cheatgrass; POSTEMERGENCE, Rate 50 g/ha
  Plant response rating, Cheatgrass: 6
cheatgrass; PREEMERGENCE, Rate 10 g/ha
  Plant response rating, Cheatgrass: 2
cheatgrass; PREEMERGENCE, Rate 50 g/ha
  Plant response rating, Cheatgrass: 6
cotton; POSTEMERGENCE, Rate 10 g/ha
  Plant response rating, Cotton: 10
cotton; POSTEMERGENCE, Rate 50 g/ha
  Plant response rating, Cotton: 10
cotton; PREEMERGENCE, Rate 10 g/ha
  Plant response rating, Cotton: 0
cotton; PREEMERGENCE, Rate 50 g/ha
  Plant response rating, Cotton: 1
Lambsquarters [1]; POSTEMERGENCE, Rate 10 g/ha
  Plant response rating, Lambsquarter: 9
Lambsquarters [1]; POSTEMERGENCE, Rate 50 g/ha
  Plant response rating, Lambsquarter: 10
Lambsquarters [1]; PREEMERGENCE, Rate 50 g/ha
  Plant response rating, Lambsquarter: 10
rice; POSTEMERGENCE, Rate 10 g/ha
  Plant response rating, Rice: 6
rice; POSTEMERGENCE, Rate 50 g/ha
  Plant response rating, Rice: 7
rice; PREEMERGENCE, Rate 50 g/ha
  Plant response rating, Rice: 0
Soybean [2]; POSTEMERGENCE, Rate 10 g/ha
  Plant response rating, Soybean: 8
Soybean [2]; POSTEMERGENCE, Rate 50 g/ha
  Plant response rating, Soybean: 9
Soybean [2]; PREEMERGENCE, Rate 50 g/ha
  Plant response rating, Soybean: 0
Velvetleaf [3]; POSTEMERGENCE, Rate 10 g/ha
  Plant response rating, Velvetleaf: 9
Velvetleaf [3]; POSTEMERGENCE, Rate 50 g/ha
  Plant response rating, Velvetleaf: 10
Velvetleaf [3]; PREEMERGENCE, Rate 50 g/ha
  Plant response rating, Velvetleaf: 1
Wild buckwheat; POSTEMERGENCE, Rate 10 g/ha
  Plant response rating, Wild buckwheat: 10
Wild buckwheat; POSTEMERGENCE, Rate 50 g/ha
  Plant response rating, Wild buckwheat: 10
Wild buckwheat; PREEMERGENCE, Rate 50 g/ha
  Plant response rating, Wild buckwheat: 10
Purple nutsedge; POSTEMERGENCE, Rate 10 g/ha
  Plant response rating, Nutsedge: 1
Purple nutsedge; POSTEMERGENCE, Rate 50 g/ha
  Plant response rating, Nutsedge: 3
Purple nutsedge; PREEMERGENCE, Rate 50 g/ha
  Plant response rating, Nutsedge: 0
barley; 62 g/ha, 0 to 100 scale
  Plant response rating Barley Igri: 50
barley; Rate 1 g/ha
  Plant response rating (0 to 100), Barley Igri: 20
barley; Rate 4 g/ha
  Plant response rating (0 to 100), Barley Igri: 30
barley; Rate 16 g/ha
  Plant response rating (0 to 100), Barley Igri: 30
corn; 62 g/ha, 0 to 100 scale
  Plant response rating, Corn: 40
corn; Rate 1 g/ha
  Plant response rating (0 to 100), Corn: 10
corn; Rate 4 g/ha
  Plant response rating (0 to 100), Corn: 20
corn; Rate 16 g/ha
  Plant response rating (0 to 100), Corn: 30
Lambsquarters [4]; 62 g/ha, 0 to 100 scale
  Plant response rating Lambsquarters: 100
Lambsquarters [4]; Rate 1 g/ha
  Plant response rating (0 to 100), Lambsquarters: 100
Lambsquarters [4]; Rate 4 g/ha
  Plant response rating (0 to 100), Lambsquarters: 100
Lambsquarters [4]; Rate 16 g/ha
  Plant response rating (0 to 100), Lambsquarters: 100
morningglory; 62 g/ha, 0 to 100 scale
  Plant response rating, Morningglory: 100
morningglory; Rate 1 g/ha
  Plant response rating (0 to 100), Morningglory: 50
morningglory; Rate 4 g/ha
  Plant response rating (0 to 100), Morningglory: 70
morningglory; Rate 16 g/ha
  Plant response rating (0 to 100), Morningglory: 100
rape; 62 g/ha, 0 to 100 scale
  Plant response rating, Rape: 100
rape; Rate 1 g/ha
  Plant response rating (0 to 100), Rape: 70
rape; Rate 4 g/ha
  Plant response rating (0 to 100), Rape: 70
rape; Rate 16 g/ha
  Plant response rating (0 to 100), Rape: 90
sorghum; 62 g/ha, 0 to 100 scale
  Plant response rating, Sorghum: 60
sorghum; Rate 1 g/ha
  Plant response rating (0 to 100), Sorghum: 20
sorghum; Rate 4 g/ha
  Plant response rating (0 to 100), Sorghum: 30
sorghum; Rate 16 g/ha
  Plant response rating (0 to 100), Sorghum: 40
Soybean [5]; 62 g/ha, 0 to 100 scale
  Plant response rating, Soybean: 95
Soybean [5]; Rate 1 g/ha
  Plant response rating (0 to 100), Soybean: 30
Soybean [5]; Rate 4 g/ha
  Plant response rating (0 to 100), Soybean: 50
Soybean [5]; Rate 16 g/ha
  Plant response rating (0 to 100), Soybean: 80
Sugar beet; 62 g/ha, 0 to 100 scale
  Plant response rating, Sugar beet: 100
Sugar beet; Rate 1 g/ha
  Plant response rating (0 to 100), Sugar beet: 100
Sugar beet; Rate 4 g/ha
  Plant response rating (0 to 100), Sugar beet: 100
Sugar beet; Rate 16 g/ha
  Plant response rating (0 to 100), Sugar beet: 100
Velvetleaf [6]; 62 g/ha, 0 to 100 scale
  Plant response rating, Velvetleaf: 100
Velvetleaf [6]; Rate 1 g/ha
  Plant response rating (0 to 100), Velvetleaf: 70
Velvetleaf [6]; Rate 4 g/ha
  Plant response rating (0 to 100), Velvetleaf: 85
Velvetleaf [6]; Rate 16 g/ha
  Plant response rating (0 to 100), Velvetleaf: 100
Umbrella sedge; POSTEMERGENCE section, flood test, Rate 1 g/ha
  Plant response rating (0 to 100), Umbrella sedge: 0
Umbrella sedge; POSTEMERGENCE section, flood test, Rate 4 g/ha
  Plant response rating (0 to 100), Umbrella sedge: 0
Umbrella sedge; Rate 16 g/ha, under POSTEMERGENCE head (flood test species)
  Plant response rating (0 to 100), Umbrella sedge: 30
Umbrella sedge; flood test species listed under POSTEMERGENCE, 62 g/ha, 0 to 100 scale
  Plant response rating Umbrella sedge: 70
